Laboratory results reported in EP2924040A1, “2-Amino-1-(o-tolyl)pyrrolo[3,2-b]quinoxaline-3-carboxamide derivates” (Universität Zürich, priority 2014, dated 2015).

Columns and labels:
EphA3 [1] = target: T1, EphA3 (Homo sapiens, UniProt P29320); assay: Surface Plasmon Resonance (SPR) determination of binding and unbinding kinetics; conditions: immobilized EphA3, 25 °C
T1 sequence (P29320 21-983): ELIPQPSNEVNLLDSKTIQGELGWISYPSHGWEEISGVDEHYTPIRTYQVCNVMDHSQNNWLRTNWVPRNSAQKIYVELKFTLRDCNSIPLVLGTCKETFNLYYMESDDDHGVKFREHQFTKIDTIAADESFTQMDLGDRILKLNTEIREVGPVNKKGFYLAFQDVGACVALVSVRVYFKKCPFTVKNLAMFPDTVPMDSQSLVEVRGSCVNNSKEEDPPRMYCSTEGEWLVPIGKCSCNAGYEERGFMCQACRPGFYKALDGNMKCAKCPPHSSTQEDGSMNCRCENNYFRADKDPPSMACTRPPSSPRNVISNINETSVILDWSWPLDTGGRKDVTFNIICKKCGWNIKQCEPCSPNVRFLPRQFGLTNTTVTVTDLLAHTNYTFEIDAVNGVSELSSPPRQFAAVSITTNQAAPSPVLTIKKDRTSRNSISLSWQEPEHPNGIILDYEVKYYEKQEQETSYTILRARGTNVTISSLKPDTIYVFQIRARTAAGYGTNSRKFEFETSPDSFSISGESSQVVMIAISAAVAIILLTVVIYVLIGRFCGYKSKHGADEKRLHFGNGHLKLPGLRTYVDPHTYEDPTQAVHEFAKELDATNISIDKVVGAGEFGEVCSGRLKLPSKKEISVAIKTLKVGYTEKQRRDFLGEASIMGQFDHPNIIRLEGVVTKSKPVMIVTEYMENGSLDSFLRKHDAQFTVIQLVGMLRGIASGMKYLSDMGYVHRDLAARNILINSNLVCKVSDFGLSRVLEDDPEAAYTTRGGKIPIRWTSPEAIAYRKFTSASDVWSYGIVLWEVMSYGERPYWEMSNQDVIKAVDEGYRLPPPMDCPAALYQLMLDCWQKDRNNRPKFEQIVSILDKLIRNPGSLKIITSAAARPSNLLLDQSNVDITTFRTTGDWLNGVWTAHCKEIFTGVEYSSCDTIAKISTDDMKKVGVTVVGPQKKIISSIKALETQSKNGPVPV
Protocol: The affinity of compound 2 towards EphA3 was determined using Surface Plasmon Resonance measurements on a ProteOn XPR36 (Bio-Rad Laboratories, AG). EphA3 was immobilized on a GLH chip (Bio-Rad Laboratories AG) by standard amine coupling procedures achieving a RU of 4000-6000 and equilibrated with steriled-filtered buffer (10mM HEPES, 150mM NaCl, 3mM EDTA, 0.005% Tween 20 pH 8.0) with a flow rate of 60µL/min. Association of compound 2 was performed at 25 °C using serial dilutions of the inhibitors in duplicates for 400s, whereas dissociation of the inhibitors from the chip was monitored for 36,000 seconds. Data were normalized using interspot referencing and subtraction of a separate analyte channel run with buffer and BSA. All sensograms were fitted using a 1:1 Langmuir model provided by the ProteOn Manager Software (Bio-Rad Laboratories AG), and the association (kon) and dissociation ([…]) rate constants were used to determine the equilibrium dissociation constants (KD).

EphA3 [2] = target: T1, EphA3; assay: Differential Scanning Fluorimetry; format: binding; conditions: 2 µmol/L EphA3, test compound 20 µmol/L, pH 8.0; read-out: difference in the melting temperature Tm (Δ Tm)
Protocol: To a 2 µmol/L solution of EphA3 in 10mM Tris HCl buffer (pH 8.0) containing 100mM NaCl, 5X SYPRO Orange fluorescent dye together with the test compounds prediluted in DMSO at a concentration of 20 µmol/L (1.4% final DMSO concentration). A final volume of 40 µL was added per well in a 96-well plate and incubated at room temperature for 1 h. The plates were centrifuged for 3 min at 450 rcf. The temperature gradient was performed in the range of 25 to 75 °C (50 acquisitions per degree at a ramp rate of […]) using a LightCycler 480 Real-Time PCR System. The detection of protein unfolding was performed with an excitation wavelength of 488 nm and an emission of 580 nm. All measurements were performed in triplicate. Compound 2 comprises a difference in the melting temperature Tm (corresponding to the temperature at which the concentrations of folded and unfolded protein are equal) with respect to EphA3 of 11.44 °C (Δ Tm), whereas prior art compounds 17 and 87 presented differences in the melting temperature Tm with respect to EphA3 of 1.6 and 0.7 °C, respectively.

[3] = system: MDA-MB-231 breast cancer cells; assay: Efficacy in a Xenograft Mouse Model; format: in vivo; conditions: female NCr Nu/Nu mice, subcutaneous MDA-MB-231, 50 mg/kg oral twice daily, 21 days
Protocol: The effect of compound 2 on MDA-MB-231 breast cancer cells was examined. The breast cancer cells were implanted subcutaneously in xenograft mouse models and the development of the body weight and the tumor volume were observed over time (21 days). Group 1 is the vehicle control group consisting of 9 animals, whereas group 2 consisted of 9 animals receiving 50 mg/kg of compound 2 twice-daily.
9 week old female NCr Nu/Nu mice (Charles River Laboratories, Inc.) were injected at the flank with 5x10^6 MDA-MB-231 cells. Once tumor volume reached 108-126 mm^3 (as measured by digital caliper) mice were randomized into a treatment and vehicle-control group of 9 animals each. The treatment group received oral doses of 50 mg/kg of compound 2 twice daily for 21 days (with the exception of a single dose on the first day), formulated as a homogeneous suspension in DMSO/1% methylcellulose (5/95, v/v). The control group received the same formulation but excluding compound 2. Tumor volume of all mice was evaluated bi-weekly up to day 19.

SMILES: Cc1ccc(O)cc1-n1c(N)c(C(N)=O)c2nc3ccccc3nc21 [Compound 2, 2-Amino-1-(5-hydroxy-2-methylphenyl)-1H-pyrrolo[2,3-b]quinoxaline-3-carboxamide]
- Kd (EphA3 [1]; 1:1 Langmuir model, read-out: dissociation constant (KD)): 6 nM
- residence time (EphA3 [1]; reciprocal value of koff, read-out: τoff (residence time) (converted)): 11 min
- ΔTm at 20 µM (EphA3 [2]): 11.4 °C
- group-median tumor volume [3]: remarkable group-median tumor volume control
